The target of experiment [1] is T1, Protein O-GlcNAcase (Homo sapiens) (UniProt O60502).
T1 sequence (whole entry): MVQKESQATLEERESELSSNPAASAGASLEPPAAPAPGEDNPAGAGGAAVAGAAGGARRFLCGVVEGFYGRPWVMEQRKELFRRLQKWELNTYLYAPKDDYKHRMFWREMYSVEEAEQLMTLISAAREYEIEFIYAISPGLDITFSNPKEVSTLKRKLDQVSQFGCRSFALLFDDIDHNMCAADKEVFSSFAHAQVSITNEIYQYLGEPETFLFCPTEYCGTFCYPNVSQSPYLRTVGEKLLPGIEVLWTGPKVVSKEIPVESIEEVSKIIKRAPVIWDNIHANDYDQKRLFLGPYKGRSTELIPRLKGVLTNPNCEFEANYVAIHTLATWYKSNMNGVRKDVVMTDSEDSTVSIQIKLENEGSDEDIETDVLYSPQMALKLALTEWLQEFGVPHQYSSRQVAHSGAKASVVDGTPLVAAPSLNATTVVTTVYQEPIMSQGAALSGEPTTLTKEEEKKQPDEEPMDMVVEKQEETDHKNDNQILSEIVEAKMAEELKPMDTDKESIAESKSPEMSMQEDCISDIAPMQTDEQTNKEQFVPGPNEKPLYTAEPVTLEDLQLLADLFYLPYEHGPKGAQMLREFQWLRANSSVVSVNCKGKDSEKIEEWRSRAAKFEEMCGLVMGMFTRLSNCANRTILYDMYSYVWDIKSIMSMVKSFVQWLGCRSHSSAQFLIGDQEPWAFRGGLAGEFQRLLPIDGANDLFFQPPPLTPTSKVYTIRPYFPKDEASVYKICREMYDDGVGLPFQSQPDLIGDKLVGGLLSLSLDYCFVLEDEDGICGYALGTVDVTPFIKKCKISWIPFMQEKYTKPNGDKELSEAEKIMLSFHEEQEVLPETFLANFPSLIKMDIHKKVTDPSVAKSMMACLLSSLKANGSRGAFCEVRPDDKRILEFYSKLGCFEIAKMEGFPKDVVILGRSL
Kind of experiment: Inhibition of recombinant human OGA expressed in Escherichia coli BL21(DE3) at 100 uM using 4-MU-GlcNAc as substrate measured after 30 mins by fluorescence assay relative to control.

Experiment [2] concerns the target T2, Chitooligosaccharidolytic beta-N-acetylglucosaminidase (Ostrinia furnacalis) (UniProt Q06GJ0).
T2 sequence (whole entry): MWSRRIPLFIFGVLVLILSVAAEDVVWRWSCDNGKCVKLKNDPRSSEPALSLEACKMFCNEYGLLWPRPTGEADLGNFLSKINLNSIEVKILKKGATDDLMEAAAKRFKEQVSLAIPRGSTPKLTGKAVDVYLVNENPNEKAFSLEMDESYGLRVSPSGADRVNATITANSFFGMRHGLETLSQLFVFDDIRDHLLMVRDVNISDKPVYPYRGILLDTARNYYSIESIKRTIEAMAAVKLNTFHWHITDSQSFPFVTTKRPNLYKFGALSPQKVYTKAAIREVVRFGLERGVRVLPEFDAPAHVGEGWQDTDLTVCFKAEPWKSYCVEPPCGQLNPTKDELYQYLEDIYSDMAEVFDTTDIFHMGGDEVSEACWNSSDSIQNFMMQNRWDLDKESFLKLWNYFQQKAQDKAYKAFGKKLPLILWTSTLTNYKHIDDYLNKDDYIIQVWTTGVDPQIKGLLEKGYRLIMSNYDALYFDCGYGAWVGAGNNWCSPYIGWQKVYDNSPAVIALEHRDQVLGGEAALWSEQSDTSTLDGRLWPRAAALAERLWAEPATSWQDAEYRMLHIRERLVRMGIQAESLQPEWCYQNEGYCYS
Kind of experiment: Inhibition of Ostrinia furnacalis Hex1 expressed in Pichia pastoris at 100 uM using 4-MU-GlcNAc as substrate measured after 30 mins by fluorescence assay relative to control.

The target of another experiment is T3, Protein O-GlcNAcase (Homo sapiens, UniProt O60502).
T3 sequence (O60502 whole entry): T1 sequence (whole entry)
The experiment is described as follows: Inhibition of recombinant human OGA expressed in Escherichia coli BL21(DE3) using varying levels of 4-MU-GlcNAc as substrate measured after 30 mins by fluorescence assay.

Experiment [3] deals with T4, Chitooligosaccharidolytic beta-N-acetylglucosaminidase (Ostrinia furnacalis, UniProt Q06GJ0).
T4 sequence (Q06GJ0 whole entry): T2 sequence (whole entry)
The experiment is described as follows: Inhibition of Ostrinia furnacalis Hex1 expressed in Pichia pastoris using varying levels of 4-MU-GlcNAc as substrate measured after 30 mins by fluorescence assay.

The target of experiment [4] is T1, Protein O-GlcNAcase (Homo sapiens). Kind of experiment: Inhibition of recombinant human OGA expressed in Escherichia coli BL21(DE3) at 200 uM using 4-MU-GlcNAc as substrate measured after 30 mins by fluorescence assay relative to control.
In experiment [5] the target is T2, Chitooligosaccharidolytic beta-N-acetylglucosaminidase (Ostrinia furnacalis). Kind of experiment: Inhibition of Ostrinia furnacalis Hex1 expressed in Pichia pastoris at 200 uM using varying levels of 4-MU-GlcNAc as substrate measured after 30 mins by fluorescence assay relative to control.

With `CC(=O)N[C@@H]1[C@@H](O)[C@H](O)[C@@H](CO)O[C@H]1SCC(=O)NCCCCN1C(=O)c2cccc3cccc(c23)C1=O`, the values for the inhibition in experiment [1] and in experiment [2] were 50% and 29.1%, respectively.
For `CC(=O)N[C@@H]1[C@@H](O)[C@H](O)[C@@H](CO)O[C@H]1SCCCCCCn1cc(CN2C(=O)c3cccc4cccc(c34)C2=O)nn1`, the inhibition (in general, the share of the control response that was lost under treatment) in experiment [1] was 25.7%; in experiment [2], 93.2%; in experiment [4], less than 50%. Besides, the inhibitory constant (Ki) (as a rule, the dissociation constant of the complex between target and ligand, obtained from inhibition or displacement) on Protein O-GlcNAcase is greater than 200 µM; in experiment [3], 21.8 µM.
On to `CC(=O)N[C@@H]1[C@@H](O)[C@H](O)[C@@H](CO)O[C@H]1SCCC(=O)NCCCCN1C(=O)c2cccc3cccc(c23)C1=O`, for which the inhibition is 34.3% in experiment [1] and 26.9% in experiment [2].
As for `CC(=O)N[C@@H]1[C@@H](O)[C@H](O)[C@@H](CO)O[C@H]1SCC(=O)NCCCN1C(=O)c2cccc3cccc(c23)C1=O`, the figures for the inhibition in experiment [5], in experiment [1] and in experiment [2] were less than 50%, 97.6% and 29.2%, respectively. Further, the Ki in experiment [3] was greater than 200 µM.
With `CC(=O)N[C@@H]1[C@@H](O)[C@H](O)[C@@H](CO)O[C@H]1SCCCCn1cc(CN2C(=O)c3cccc4cccc(c34)C2=O)nn1`, the inhibition in experiment [1] turned out to be 25.1%; in experiment [2] it was 89.9%.
In the same order, the values of `CC(=O)N[C@@H]1[C@@H](O)[C@H](O)[C@@H](CO)O[C@H]1SCCCCCn1cc(CN2C(=O)c3cccc4cccc(c34)C2=O)nn1` are 26% and 91.9%.
Taken in the same sequence, the figures for `CC(=O)N[C@@H]1[C@@H](O)[C@H](O)[C@@H](CO)O[C@H]1SCCC(=O)NCCCN1C(=O)c2cccc3cccc(c23)C1=O` were 59.4% and 25.3%.
Taken in the same sequence, the figures for `CC(=O)N[C@@H]1[C@@H](O)[C@H](O)[C@@H](CO)O[C@H]1SCC(=O)NN1C(=O)c2cccc3cccc(c23)C1=O` were 31.1% and 24.9%.
For `CC(=O)N[C@@H]1[C@@H](O)[C@H](O)[C@@H](CO)O[C@H]1SCCn1cc(CN2C(=O)c3cccc4cccc(c34)C2=O)nn1`, the values for the inhibition in experiment [1] and in experiment [2] were 27.8% and 84%, respectively.
Taken in the same sequence, the figures for `CC(=O)N[C@@H]1[C@@H](O)[C@H](O)[C@@H](CO)O[C@H]1SCC(=O)NCCN1C(=O)c2cccc3cccc(c23)C1=O` were 38.6% and 18.4%.
Taken in the same sequence, the figures for `NN1C(=O)c2cccc3cccc(c23)C1=O` were 22.2% and 28.1%.
In the same order, the values of `CC(=O)N[C@@H]1[C@@H](O)[C@H](O)[C@@H](CO)O[C@H]1SCCC(=O)NCCN1C(=O)c2cccc3cccc(c23)C1=O` are 66.9% and 25.8%.
`CC(=O)N[C@@H]1[C@@H](O)[C@H](O)[C@@H](CO)O[C@H]1SCCCn1cc(CN2C(=O)c3cccc4cccc(c34)C2=O)nn1`: the inhibition in experiment [1] was found to be 22.7%; in experiment [2] it was 81.6%.
In the same order, the values of `CC(=O)N[C@H]1/C(=N/OC(=O)Nc2ccccc2)O[C@H](CO)[C@@H](O)[C@@H]1O` are 98.9% and 97.5%.
With `CC(=O)N[C@@H]1[C@@H](O)[C@H](O)[C@@H](CO)O[C@H]1S`, the inhibition in experiment [1] is 12%; in experiment [2] it was 0%.
Take `CC(=O)N[C@@H]1[C@@H](O)[C@H](O)[C@@H](CO)O[C@H]1SCn1cc(CN2C(=O)c3cccc4cccc(c34)C2=O)nn1`: the values for the inhibition in experiment [1] and in experiment [2] were 18.5% and 17.9%, respectively.

The values above are taken from ChEMBL document CHEMBL4177740, “Selective inhibition of β-N-acetylhexosaminidases by thioglycosyl-naphthalimide hybrid molecules” (Bioorg Med Chem, 2018).
